Read-outs that look alike come from different tables or passages of the source. Where a SMILES comes first, the peptide text is derived from it.
How the values were obtained:
[1] = 17- versus 19-allylamino derivative of herbimycin A; cited from earlier work
[2] = test system: OVA-peptide pulsed EL4 cells; experiment: 51Cr release assay with effector cells from immunized mice; assay type: cell-based, C57BL/6 mice; settings: mice immunized once or twice; OVA-primed EL-4 target cells
Description: Preparation of hsp70 and/or peptide for use in immunization. Approximately 15 μg hsp70 and 12 μg OVA-BiP were mixed, on ice, to a final volume of 10 μL in Buffer Y (to produce a final concentration of 21.5 μM hsp70, 0.5 mM OVA-BiP, 20 mM HEPES pH 7.0, 150 mM KCl, 10 MM (NH4)2SO4, 2 mM MgCl2 and 2 mM MgADP, pH 7.0). The mixture was incubated for 30 minutes at 37° C. and was used for in vivo immunizations. Similar incubations were carried out with (i) 5 μl TiterMax adjuvant (Vaxcell, Norcross, Ga.) and 12 μg OVA-BiP (ii) 5 μl TiterMax and 5 μg OVA peptide or (iii) 12 μg OVA-BiP alone.
Preparation of cells for chromium release assay. […]
Chromium release assay. […] Supernatants were harvested and radioactivitiy released by cytotoxic activity was measured in a gamma counter. The percent specific lysis was calculated as 100×[(cpm release by CTL−cpm spontaneously released)/(cpm maximal release−cpm spontaneously released)]. Maximal release was determined by adding 1% NP-40 to lyse all cells. Spontaneous release of all target in the absence of effector cells (measured in a culture of target cells (in the absence of effector cells) maintained in parallel for the duration of the assay) was less than 20% of the maximal release.

[3] = biological target: T1, gp96 in the presence of herbimycin A (Mus musculus, UniProt P08113); experiment: Affinity panning of phage display heptapeptide library on gp96 in the presence of herbimycin A; assay type: binding; settings: TWEEN 20
T1 construct: The mouse cDNA encoding mature gp96 (i.e., wherein the endoplasmic reticulum signal peptide has been removed) was incorporated into the pET 11 a expression vector; made in house; host or cells: Escherichia coli BL21 (pET11gp96)
T1 sequence (P08113 22-802): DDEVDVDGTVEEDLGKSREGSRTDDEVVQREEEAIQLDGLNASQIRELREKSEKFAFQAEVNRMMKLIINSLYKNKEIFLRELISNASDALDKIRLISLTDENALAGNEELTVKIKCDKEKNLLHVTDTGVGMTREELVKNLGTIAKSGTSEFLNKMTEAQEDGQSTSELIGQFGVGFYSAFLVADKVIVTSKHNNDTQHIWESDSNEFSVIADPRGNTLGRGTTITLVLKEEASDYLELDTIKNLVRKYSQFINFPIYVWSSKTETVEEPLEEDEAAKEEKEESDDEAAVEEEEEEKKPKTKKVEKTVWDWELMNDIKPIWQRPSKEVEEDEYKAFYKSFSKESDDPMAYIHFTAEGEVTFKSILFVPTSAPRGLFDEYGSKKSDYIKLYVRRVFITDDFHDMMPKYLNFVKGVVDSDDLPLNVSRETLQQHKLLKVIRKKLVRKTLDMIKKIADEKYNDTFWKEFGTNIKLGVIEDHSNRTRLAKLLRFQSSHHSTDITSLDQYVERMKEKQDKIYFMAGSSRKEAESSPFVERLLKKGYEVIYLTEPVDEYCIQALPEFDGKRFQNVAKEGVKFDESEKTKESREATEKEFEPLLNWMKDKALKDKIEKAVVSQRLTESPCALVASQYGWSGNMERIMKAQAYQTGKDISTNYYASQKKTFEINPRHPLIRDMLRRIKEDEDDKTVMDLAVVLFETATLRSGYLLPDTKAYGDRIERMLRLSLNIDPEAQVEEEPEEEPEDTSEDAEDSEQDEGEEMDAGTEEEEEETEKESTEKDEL
Description: Preparation of a gp96 expression vector. The mouse cDNA encoding mature gp96 (i.e., wherein the endoplasmic reticulum signal peptide has been removed) was incorporated into the pET 11 a expression vector (Novagen) as follows. Gp96 cDNA insert was prepared by polymerase chain reaction (PCR) of a pRc/CMV clone containing the cDNA using the following oligonucleotide primers: […]
Expression of gp96. pET11gp96 was transformed into BL21 Escherichia coli cells, and plated on LB plates containing ampicillin (50 μg/ml). One of the resulting colonies was used to inoculate a 20 ml overnight culture of 2×TY medium containing ampicillin (150 μg/ml). The following day, the resulting culture was spun down and the harvested bacteria were resuspended in 1 ml of fresh medium. Two one liter cultures were then each inoculated with 0.5 ml of the harvested cells and allowed to grow at 37° C. until the optical density, measured at 600 nm, was 0.5. Then, IPTG was added to a concentration of 1 mM and the cells were cultured for another 3 hours before being harvested by centrifugation. The resulting cell pellet was resuspended in 20 ml of 50 mM HEPES pH 7.5, 50 mM KCl, 5 mM MgAcetate, 20% sucrose and 1 mM PMSF. Cell extracts were prepared by pressure shearing in a French Press. The lysates were then spun at 100,000×g for 1.5 hours and the supernatant, which constituted crude gp96 extract, was collected.
Purification of gp96. The following steps were all performed at 4° C. A 12.5 cm×3.2 cm column of DE52 resin (Whatman) was equilibrated in a solution of 50 mM MOPS pH 7.4, 10 mM NaCl, 5 mM MgAcetate (hereafter, “Buffer A”). The crude gp96 extract was diluted 2-fold and immediately loaded onto the column at a flow rate of 2 ml/min. Elution from the column was achieved using a gradient of a solution of 50 mM MOPS pH 7.4, 1M NaCl, 5 mM MgAcetate (hereafter, “Buffer B”) from 0% to 100% Buffer B over 1000 ml. The elution profile was examined by subjecting fractions collected from the column to SDS-PAGE analysis. Fractions containing gp96 were pooled and diluted 2-fold with cold water, and were immediately run onto the next column (see below).
A 10 cm×1 cm column of hydroxyapatite (BioRad) was washed with 100 ml 0.5 M K2HPO4, 50 mM KCl pH 7.4 and then equilibrated with 10 mM K2HPO4, 50 mM KCl pH 7.4. The pooled diluted fractions from the DE52 column were loaded onto this column at a flow rate of 1 ml/min. The gp96 protein was eluted in a gradient of 10-500 mM K2HPO4 over 800 ml. Fractions containing gp96 were pooled and loaded onto the phenylsepharose column described below.
A 9 cm×3 cm column of phenylsepharose (Pharmacia) was equilibrated with 500 mM NaCl, 50 mM MOPS pH 7.4. The pooled fractions containing gp96 from the hydroxyapatite were loaded onto this column at 1 ml/min and the gp96 was eluted in a gradient of 500-0 mM NaCl over 800 ml. The gp96 containing fractions collected from the column were identified by SDS-PAGE, pooled, and concentrated.
The gp96 was then loaded onto a Hi Load 26/60 Superdex-200 column (Pharmacia) equilibrated with 100 mM NaCl, 5 mM MgAcetate, 50 mM MOPS pH 7.5, 3 ml fractions were collected, and the fractions containing the most pure gp96 (as identified by SDS PAGE using a 12 percent reducing gel) and pooled. To the pooled fractions, glycerol was added to 10% (v/v), and then the fractions were concentrated to 21 mg/ml on a Centricon-50 concentrator (Amicon), frozen using liquid nitrogen, and stored at −80° C.
Affinity panning. The Ph.D. Phage Display Library Kit (New England BioLabs, Beverly, Mass.), was used for affinity panning. For each panning experiment, a well of a 96-well polystyrene microtiter plate (each well having a 6 mm diameter) was filled with 150 μl of a solution of 200 μg/ml of gp96 in 0.1 M NaHCO3 pH 8.3. If herbimycin A was to be included in the experiment, 1 μl of 10 mg/ml herbimycin A (GIBCO) in DMSO was added to each well, corresponding to a 50-fold molar excess relative to gp96. […]

[4] = biological target: T1, gp96 in the presence of herbimycin A; settings: expected frequency for comparison with % actual, cited from earlier work
EG7 cells = experiment: EG7 tumor cell challenge after immunization; assay type: in vivo, C57BL/6 mice; settings: peptide alone, without TiterMax or hsp70, eight mice per group
Description: C57BL/6 mice, 8-10 weeks old, were immunized intradermally with one of the following (eight mice in each group): (a)5 μl TiterMax and 5 μg OVA peptide; (b) 15 μg hsp70 and 5 μg OVA peptide; (c) 5 μl TiterMax and […] (OVA-BiP); (d) 15 μg hsp70 and 12 μg OVA-BiP; (e) control (four animals only in this group); (f) 5 μg OVA peptide; or (g) 12 μg OVA-BiP. The mice then were injected with 4×10^6 EG7 cells. Tumor size was evaluated over time by measuring two diameters, the greatest diameter and the diameter perpendicular to the greatest diameter, and then calculating the average diameter. The results are shown in FIGS. 8A-G (corresponding to groups a-g, as set forth above).

[5] = Table XII, gp96 and herbimycin A, binding buffer without calcium: 20 mM HEPES pH 7.5, 100 mM KCl, 1 mM DTT, 1 mM MgAcetate, 42 phage-expressed peptides sequenced
[6] = Table XIV, gp96 in the presence of herbimycin A, binding buffer with ATP: 20 mM HEPES pH 7.5, 100 mM KCl, 1 mM CaCl2, 1 mM MgAcetate, 1 mM ATP
[7] = Table XVI, binding buffer with AMP-PNP instead of ATP: 20 mM HEPES pH 7.5, 100 mM KCl, 1 mM CaCl2, 1 mM MgAcetate, 1 mM AMP-PNP

| Compound | activity [1] | OVA-specific cytotoxic immune response [2] | % actual (amino acid frequency in sequenced gp96-binding phage-expressed heptapeptides) [3, 5] | % actual (amino acid frequency in sequenced gp96-binding phage-expressed heptapeptides) [3, 6] | % actual (amino acid frequency in sequenced gp96-binding phage-expressed heptapeptides) [3, 7] | % expected (amino acid frequency) ([4]; Table XII) | % expected (amino acid frequency) ([4]; Table XIV) | % expected (amino acid frequency) ([4]; Table XVI) | tumor-free animals (EG7 cells) |
| --- | --- | --- | --- | --- | --- | --- | --- | --- | --- |
| 17-allylamino herbimycin | more active than 19-allylamino herbimycin |  |  |  |  |  |  |  |  |
| CC[C@H](C)[C@H](NC(=O)[C@@H](NC(=O)[C@@H](N)CO)[C@@H](C)CC)C(=O)N[C@@H](CC(N)=O)C(=O)N[C@@H](Cc1ccccc1)C(=O)N[C@@H](CCC(=O)O)C(=O)N[C@@H](CCCCN)C(=O)N[C@@H](CC(C)C)C(=O)NCC(=O)N[C@@H](CO)C(=O)NCC(=O)N[C@@H](Cc1c[nH]cn1)C(=O)N[C@@H](Cc1c[nH]c2ccccc12)C(=O)N[C@@H](CC(=O)O)C(=O)N[C@@H](Cc1ccccc1)C(=O)N[C@@H](C)C(=O)N[C@@H](Cc1c[nH]c2ccccc12)C(=O)N1CCC[C@H]1C(=O)N[C@@H](Cc1c[nH]c2ccccc12)C(=O)O [OVA-BiP] (H-SIINFEKLGSGHWDFAWPW-OH) |  | significant anti-OVA immune response |  |  |  |  |  |  |  |
| N[C@@H](CO)C(=O)O [Ser] |  |  | 10.88% | 16.0% | 4.28% | 11.4% | 11.4% | 11.4% |  |
| C[C@@H](O)[C@H](N)C(=O)O [Thr] |  |  | 13.95% | 8.9% | 10% | 9.3% | 9.3% | 9.3% |  |
| N[C@@H](Cc1c[nH]c2ccccc12)C(=O)O [Trp] |  |  | 1.36% | 3.57% | 2.85% | 1% | 1% | 1% |  |
| N[C@@H](Cc1ccc(O)cc1)C(=O)O [Tyr] |  |  | 4.76% | 7.1% | 4.28% | 2.9% | 2.9% | 2.9% |  |
| CC(C)[C@H](N)C(=O)O [Val] |  |  | 4.08% | 5.3% | 8.5% | 4.3% | 4.3% | 4.3% |  |
| Ser Ile Ile Asn Phe Glu Lys Leu (SIINFEKL; printed: Ser Ile Ile Asn Phe Glu Lys Leu) [OVA peptide] |  |  |  |  |  |  |  |  | no animals were tumor-free |
